Here are results for one molecule from patent US6355682B1, “Treatment of acute renal failure by administration of N-acetylcysteine” (priority 2001, dated 2002).

The test deals with patients affected by acute renal failures. The test can be described thus: Clinical case reports: N-acetycysteine given to patients with acute renal failure. It is filed as in vivo, human.

For `CC(=O)N[C@@H](CS)C(=O)O` [N-acetycysteine, N-acetylcysteine], the renal function result (Case No. 1: 10 mg/kg twice daily, over the next several days) is “returned to normal” and the renal function entry (Case No. 2: 20 mg/kg every twelve hours, over the next seventy-two hours) is “returned to normal”. Moreover, the “BUN and Creatinin” value runs as follows: (Case No. 1: acute renal failure after cardiogenic shock, 600 mg in a 20% solution every twelve hours, the next day) “the rise of BUN and Creatinin stopped”; (Case No. 2: hypovolemic shock from acute pancreatitis, 20% solution, 20 mg/kg every twelve hours, values had risen to five times normal) “The rise in their BUN and Creatinin stopped”; (Case No. 3: multi-organ failure after cardiac arrest, 20 mg/kg every twelve hours via nasogastric tube, over the next several days) “progressively declined”. Also, the need for dialysis entry (Case No. 1: after N-acetycysteine treatment) is “Dialysis was no longer required”, the need for dialysis result (Case No. 2: after N-acetycysteine treatment) is reported as “Dialysis was no longer required” and the need for dialysis result (Case No. 4: two weeks after onset of renal toxicity) is reported as “dialysis was no longer required”. The urine output result was “increased to the normal level” (Case No. 3: 20 mg/kg every twelve hours via nasogastric tube, before treatment less than 100 cc per day) and “returned to normal” (Case No. 4: 10 mg/kg every twelve hours, within several days). For the same molecule, the Creatinin clearance (Case No. 4: 10 mg/kg every twelve hours, two weeks after onset of renal toxicity, 11 ml/minute before treatment, normal for age above 65 ml/min) stood at 22 mL/min. In addition, the Bun/Creatinin result (Case No. 4: diabetic patient, acute renal failure under IV Vancomycin and Imipenim, 10 mg/kg every twelve hours, values had risen to five times normal) is “progressively declined”. The potassium level entry (Case No. 5: 20 mg/kg every twelve hours, within 24 hours, serum potassium 6.8 before admission) is reported as “normalized”. For the same molecule, the urine volume result (Case No. 5: deterioration of chronic renal failure after Ciprofloxacin, 20 mg/kg every twelve hours, within 24 hours) is recorded as “substantially increased”. Also, the need for hemodialysis entry (Case No. 5: remained on 600 mg twice daily) was “no longer required any hemodialysis”.
